Read-outs that look alike come from different tables or passages of the source.
What was measured:
[1] = tested on: Key Broadleaf Weed and Crop Species; assay: Post-emergent Test II herbicidal activity (Table 5); assay type: in vivo; settings: post-emergence, 336 h, post-emergent, 14 days after application; for pest or weed control at 70 g/ha: application rate 70 g ai/ha; for pest or weed control at 140 g/ha: application rate 140 g ai/ha
In short: (§1)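 Visual injury ratings (0 = no injury, 100 = complete kill) were taken 14 d after treatment, relative to untreated plants. Seedlings at the first–second true leaf stage received overhead spray at 187 L/ha; the highest rate was serially diluted to ½×, ¼×, ⅛× and 1/16×.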

[2] = tested on: Key Grass and Sedge Weeds as well as Grass Crops; assay: Post-emergent Test II herbicidal activity (Table 6); assay type: in vivo; settings: post-emergence, 336 h; for pest or weed control at 70 g/ha: application rate 70 g ai/ha; for pest or weed control at 140 g/ha: application rate 140 g ai/ha
In short: as §1

[3] = ABUTH: velvetleaf (Abutilon theophrasti), read-out: Visual Growth Reduction (%) 14 Days After Application, ABUTH
[4] = AMARE: redroot pigweed (Amaranthus retroflexus), read-out: Visual Growth Reduction (%) 14 Days After Application, AMARE
[5] = BRSNN: oilseed-rape, canola (Brassica napus), read-out: Visual Growth Reduction (%) 14 Days After Application, BRSNN
[6] = CHEAL: lambsquarters (Chenopodium album), read-out: Visual Growth Reduction (%) 14 Days After Application, CHEAL
[7] = EPHHL: wild poinsettia (Euphorbia heterophylla), read-out: Visual Growth Reduction (%) 14 Days After Application, EPHHL
[8] = HELAN: sunflower (Helianthus annuus), read-out: Visual Growth Reduction (%) 14 Days After Application, HELAN
[9] = VIOTR: wild pansy (Viola tricolor), read-out: Visual Growth Reduction (%) 14 Days After Application, VIOTR
[10] = CYPES: yellow nutsedge (Cyperus esculentus), read-out: Visual Growth Reduction (%) 14 Days After Application, CYPES
[11] = DIGSA: crabgrass (Digitaria sanguinalis), read-out: Visual Growth Reduction (%) 14 Days After Application, DIGSA
[12] = ECHCG: barnyardgrass (Echinochloa crus-galli), read-out: Visual Growth Reduction (%) 14 Days After Application, ECHCG
[13] = ORYSA: rice (Oryza sativa), read-out: Visual Growth Reduction (%) 14 Days After Application, ORYSA
[14] = SETFA: giant foxtail (Setaria faberi), read-out: Visual Growth Reduction (%) 14 Days After Application, SETFA
[15] = SORVU: grain sorghum (Sorghum vulgare), read-out: Visual Growth Reduction (%) 14 Days After Application, SORVU
[16] = TRZSS (wheat, Triticum aestivum), read-out: Visual Growth Reduction (%) 14 Days After Application, TRZSS
[17] = ZEAMX: maize, corn (Zea mays), read-out: Visual Growth Reduction (%) 14 Days After Application, ZEAMX

Compound	pest or weed control at 70 g/ha [1, 3] [%]	pest or weed control at 140 g/ha [1, 3] [%]	pest or weed control at 70 g/ha [1, 4] [%]	pest or weed control at 140 g/ha [1, 4] [%]	pest or weed control at 70 g/ha [1, 5] [%]	pest or weed control at 140 g/ha [1, 5] [%]	pest or weed control at 70 g/ha [1, 6] [%]	pest or weed control at 140 g/ha [1, 6] [%]	pest or weed control at 70 g/ha [1, 7] [%]	pest or weed control at 140 g/ha [1, 7] [%]	pest or weed control at 70 g/ha [1, 8] [%]	pest or weed control at 140 g/ha [1, 8] [%]	pest or weed control at 70 g/ha [1, 9] [%]	pest or weed control at 140 g/ha [1, 9] [%]	pest or weed control at 70 g/ha [2, 10] [%]	pest or weed control at 140 g/ha [2, 10] [%]	pest or weed control at 70 g/ha [2, 11] [%]	pest or weed control at 140 g/ha [2, 11] [%]	pest or weed control at 70 g/ha [2, 12] [%]	pest or weed control at 140 g/ha [2, 12] [%]	other results
Nc1c(F)c(-c2cc(F)c(OC(F)F)cc2F)nc(C(=O)O)c1Cl [Compound 195]	0 to 29	0 to 29	0 to 29	45 to 59	45 to 59	60 to 74	45 to 59	75 to 84	30 to 44	30 to 44	60 to 74	85 to 94	0 to 29	0 to 29	0 to 29	0 to 29	0 to 29	0 to 29	0 to 29	0 to 29	pest or weed control at 70 g/ha [2, 13]: 0 to 29%; pest or weed control at 140 g/ha [2, 13]: 0 to 29%; pest or weed control at 70 g/ha [2, 14]: 0 to 29%; pest or weed control at 140 g/ha [2, 14]: 0 to 29%; pest or weed control at 70 g/ha [2, 15]: 0 to 29%; pest or weed control at 140 g/ha [2, 15]: 0 to 29%; pest or weed control at 70 g/ha [2, 16]: 0 to 29%; pest or weed control at 140 g/ha [2, 16]: 0 to 29%; pest or weed control at 70 g/ha [2, 17]: 0 to 29%; pest or weed control at 140 g/ha [2, 17]: 0 to 29%; melting point: 162 to 165 °C
Nc1cc(-c2cc(F)c(C(F)F)cc2F)nc(C(=O)O)c1Cl [Compound 174]	75 to 84	75 to 84	95 to 100	95 to 100	95 to 100	95 to 100	95 to 100	95 to 100	95 to 100	95 to 100	95 to 100	95 to 100	45 to 59	60 to 74	60 to 74	85 to 94	0 to 29	45 to 59	60 to 74	85 to 94	pest or weed control at 70 g/ha [2, 13]: 0 to 29%; pest or weed control at 140 g/ha [2, 13]: 0 to 29%; pest or weed control at 70 g/ha [2, 14]: 0 to 29%; pest or weed control at 140 g/ha [2, 14]: 45 to 59%; pest or weed control at 70 g/ha [2, 15]: 0 to 29%; pest or weed control at 140 g/ha [2, 15]: 0 to 29%; pest or weed control at 70 g/ha [2, 16]: 0 to 29%; pest or weed control at 140 g/ha [2, 16]: 0 to 29%; pest or weed control at 70 g/ha [2, 17]: 0 to 29%; pest or weed control at 140 g/ha [2, 17]: 0 to 29%; melting point: 171.8 to 173.9 °C
COC(=O)c1nc(-c2cc(F)c(C)cc2F)nc(N)c1OC [Compound 185]	30 to 44	45 to 59	0 to 29	0 to 29	30 to 44	45 to 59	60 to 74	95 to 100	75 to 84	85 to 94	75 to 84	85 to 94	0 to 29	0 to 29	0 to 29	0 to 29	0 to 29	0 to 29	0 to 29	0 to 29	pest or weed control at 70 g/ha [2, 13]: 0 to 29%; pest or weed control at 140 g/ha [2, 13]: 0 to 29%; pest or weed control at 70 g/ha [2, 14]: 0 to 29%; pest or weed control at 140 g/ha [2, 14]: 0 to 29%; pest or weed control at 70 g/ha [2, 15]: 0 to 29%; pest or weed control at 140 g/ha [2, 15]: 0 to 29%; pest or weed control at 70 g/ha [2, 16]: 0 to 29%; pest or weed control at 140 g/ha [2, 16]: 0 to 29%; pest or weed control at 70 g/ha [2, 17]: 0 to 29%; pest or weed control at 140 g/ha [2, 17]: 0 to 29%; melting point: 163.4 to 164.8 °C
